The values below come from patent US20130123108A1, “ACTIVE SUBSTANCE COMPOSITION COMPRISING AT LEAST ONE NITROGEN ATOM-CONTAINING, HYPERBRANCHED POLYMER” (BASF SE, priority 2005, published 2013).

A short description of data set [1]: Redispersing of polymer/active substance compositions in buffer, general procedure 1. In kind it is physicochemical. Details: key: 1: unsatisfactory redispersing, sediment; 2: no ambiguous assessment possible; 3: complete redispersing with clouding (weak to opaque); 4: clear solution. Conditions: phosphate buffer pH 6.8. The procedure:
Each time 1 or 10% by weight solutions in N,N-dimethylformamide (DMF) of the hyperbranched polymer to be assessed and also 0.1% by weight solutions of the active substances, likewise in DMF, were provided. Active substance compositions were prepared by mixing in a Tecan pipetting robot with the use of 1 ml flat-bottomed glass vessels from HJ-Bioanalytik (96-well plates in the deep well format). Each time 50 μl of polymer and 500 μl of active substance solution were added to a vessel and the solvent was subsequently removed by drying for 24 hours in a vacuum-drying chamber at 70° C. and a pressure of less than 10 mbar. The test samples were subsequently redispersed by addition of 500 μl of buffer solution (phosphate buffer pH 6.8, 23.05 g of potassium dihydrogenphosphate, 23.30 g of disodium hydrogenphosphate, deionized water made up to 5000 ml) and subsequent shaking for two hours using an HP MTP shaker. The assessment was carried out by measuring the particle size using diffusion light scattering after a resting phase of 2 h.
1=unsatisfactory redispersing, sediment 2=no ambiguous assessment possible 3=complete redispersing with clouding (weak to opaque) 4=clear solution
Determination of the properties of aqueous active substance compositions according to general procedure 1. Use was made of bentazon at a polymer/active substance ratio of 1:1 and metazachlor at a polymer/active substance ratio of 10:1.

Data set [2] in a line: Solubility from solid dispersion with hyperbranched polymer, general procedure 2. The format is physicochemical. Conditions: for solubility at 24 h: pH 6.8, aqueous with cosolvent or surfactant or cyclodextrin, thermodynamic from solid. Here is the method: 0.5 g of the chosen polymer and 0.1 g of a compound to be dissolved in water were dissolved in approximately 20 ml of N,N-dimethylformamide (DMF). The mixture was stirred and subsequently freed from DMF. A solid dispersion of the chosen copolymer with the chosen compound to be dissolved was obtained. The solid dispersion was added to 100 ml of water (buffered to pH 6.8) and the mixture was stirred for 24 h. After filtration, solutions were obtained and their contents of the compound to be dissolved were determined using HPLC and a UV detector. The literature values for water solubilities of the chosen compounds and the wavelengths of the measurement by UV spectroscopy are listed in table 1:
Determination of the properties of aqueous active substance compositions according to general procedure 2.

For data set [3] the following is noted: literature values, Table 1; cited from earlier work.
A short description of data set [4]: Solubility in supersaturated polymer solution, general procedure 3. The format is physicochemical. Conditions: phosphate buffer pH 7.0 with hyperbranched polymer, pH 7, aqueous with cosolvent or surfactant or cyclodextrin, thermodynamic from solid, 0.2 g piroxicam, 20 g phosphate buffer pH 7.0, UV spectroscopy. Here is the method: Approximately 2 g of polymer were weighed out in a glass beaker. Subsequently, 0.2 g of piroxicam or 0.3 g of carbamazepine was each time weighed out into the charge in order to obtain a supersaturated solution. Subsequently, 20 g of phosphate buffer pH 7.0 were added. After filtration, solutions were obtained and their contents of the compound to be dissolved were determined by UV spectroscopy.
Determination of the properties of aqueous active substance compositions according to general procedure 3.

The conditions of data set [5]: literature values, Table 2; cited from earlier work.
[6] abbreviates: water buffered to pH 6.8 with hyperbranched polymer, 0.5 g polymer, 0.1 g compound, 100 ml water buffered to pH 6.8, stirred 24 h, HPLC/UV, read-out: Solubility in the presence of Polymer 5.
Setting [7] is: water buffered to pH 6.8 with hyperbranched polymer, Solubility in the presence of Polymer 1, 0.5 g polymer, 0.1 g compound, 100 ml water buffered to pH 6.8, stirred 24 h, HPLC/UV.

Where two headings read alike, the source gives them in different places.

On to `CC(C)N1C(=O)c2ccccc2NS1(=O)=O` [Bentazon], for which the Assessment in data set [1] (Polymer from example 1, polymer/active substance ratio 1:1) is 4; in data set [1] (Polymer from example 6, polymer/active substance ratio 1:1) it was 4.
On to `NC(=O)N1c2ccccc2C=Cc2ccccc21` [Carbamazepine], for which the solubility at 24 h came to 190 µg/mL in data set [2] (setting [6]); 181 µg/mL in data set [2] (setting [7]); 336 µg/mL in data set [2] (water buffered to pH 6.8 with hyperbranched polymer, Solubility in the presence of Polymer 4, 0.5 g polymer, 0.1 g compound, 100 ml water buffered to pH 6.8, stirred 24 h, HPLC/UV). The “Water solubility (without polymer)” value in data set [3] was 120 µg/mL.
For `CCOC(=O)/C(Cl)=C/c1cc(N2C(=O)C3=C(CCCC3)C2=O)ccc1Cl` [Cinidon-ethyl], the “Solubility in the presence of Polymer 1” value in data set [2] (0.5 g polymer, 0.1 g compound, 100 ml water buffered to pH 6.8, stirred 24 h, HPLC/UV) stood at 97 µg/mL. Moreover, in data set [3], the “Water solubility (without polymer)” value was 0.057 µg/mL.
With `N#Cc1nn(-c2c(Cl)cc(C(F)(F)F)cc2Cl)c(N)c1[S+]([O-])C(F)(F)F` (centres unmarked) [Fipronil], the solubility at 24 h in data set [2] (Solubility in the presence of Polymer 1) amounted to 448 µg/mL.
As for `Cc1cccc(C)c1N(Cn1cccn1)C(=O)CCl` [Metazachlor], the Assessment in data set [1] (Polymer from example 1, polymer/active substance ratio 10:1) is 3; in data set [1] (Polymer from example 6, polymer/active substance ratio 10:1) it was 3.
For `CN1C(C(=O)Nc2ccccn2)=C(O)c2ccccc2S1(=O)=O` [Piroxicam], the solubility at 24 h came out at 1110 µg/mL in data set [2] (setting [6]) and 1020 µg/mL in data set [2] (setting [7]). In addition, the solubility in data set [4] (Solubility in the presence of Polymer 1, approx. 2 g polymer) amounted to 9200 µg/mL; in data set [4] (approx. 2 g polymer, read-out: Solubility in the presence of Polymer 3) it was 5300 µg/mL. In addition, the “Water solubility (without polymer)” value in data set [5] is 420 µg/mL; in data set [3], 200 µg/mL.

In general, solubility refers to the concentration that dissolves in the medium under given conditions.
